One cell line from the supplement of paper PMC10307832 can be followed below.

Holding throughout (test): relative viability (nuclei count vs DMSO), 5 days (fraction); higher = more cells survive
Compound in assay [1]: CC(=O)Nc1cccc(-n2c(=O)n(C3CC3)c(=O)c3c(Nc4ccc(I)cc4F)n(C)c(=O)c(C)c32)c1 [Trametinib] + N=C(N)NC(=N)NCCc1ccccc1 [Phenformin] (partner 250 µM)
Summed up: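 A single step with final 0.05% Triton X-100, 1% formaldehyde and 1 ug/ml Hoechst fixed the cells and stained nuclei 5 days after treatment. Lung cancer cell lines in 1536-well plates had been treated by pin tool the day after seeding with one drug alone or a fixed anchor-drug dose plus five library-drug doses (not always all listed) in √10 steps, and nuclei were counted on 4× images. Relative viability is the ratio of nuclei in treated wells to nuclei in vehicle wells, taken as the median of duplicate plates.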

Compound in assay [2]: CC(=O)Nc1cccc(-n2c(=O)n(C3CC3)c(=O)c3c(Nc4ccc(I)cc4F)n(C)c(=O)c(C)c32)c1 [Trametinib]
Summed up:
(§1)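 After an overnight hold at 37 °C, lung cancer cell lines in 1536-well plates were pinned with five library-drug doses (not always all listed), each √10 from the next, on vehicle-anchored plates. The cells stayed 5 days without fresh medium, then a one-step fix, permeabilisation and Hoechst stain preceded 4× imaging and MetaXpress nuclear counts. A plate passed only with control CV under 25% and at least one doubling. Viability is the median, over plates, of treated-well nuclei relative to vehicle-well nuclei.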

Compound in assay [3]: CN1C=C(C2=CC=CC=C21)/C=C\3/C4=C(C=CC=N4)NC3=O
In a few lines:
as §1

With UMC-11, the relative viability in assay [1] (first compound 0.0025 µM) stood at 0.366; in assay [1] (first compound 0.007906 µM), 0.328; in assay [1] (first compound 0.025 µM) it was 0.28; in assay [1] (first compound 0.07906 µM), 0.309; in assay [1] (first compound 0.25 µM), 0.291; in assay [2] (0.0025 µM), 0.931. Further, the relative viability in assay [2] (0.007906 µM) was determined as 1.03; in assay [2] (0.02 µM, anchor plate), 0.722; in assay [2] (0.025 µM) it was 0.658; in assay [2] (0.07906 µM), 0.92; in assay [2] (0.25 µM), 0.985; in assay [3] (0.02 µM) it was 0.876. For the same cell line, the relative viability in assay [3] (0.06325 µM) worked out at 0.884; in assay [3] (0.2 µM), 0.771; in assay [3] (0.6325 µM) it was 0.968; in assay [3] (2 µM), 1.17.
